From paper PMC10069031 (European Journal of Medical Research, 2023)

Experiments:
ERK1/2 = assay: Inhibition of ERK activation in CSF1-stimulated RAW264.7 cells (western blot); type: cell-based, mouse; conditions: Mus musculus, mean ± SD (replicates), read-out: Mean kinase IC50 values: P(T185,202;Y187,204) ERK1/2 [WB]
Description: RAW264.7 cells (10^6) were seeded into cell culture dishes 6 cm in diameter and incubated in 4 mL RPMI/10% fetal bovine serum (Biochrom) for 24 h at 37 °C in a humidified 5% CO2 atmosphere. Cells were washed once with phosphate-buffered saline (PBS) and starved in 3 mL RPMI/0.1% bovine serum albumin for another 24 h. Cells were then treated for 1 h at 37 °C with drugs at the indicated final concentrations, with 0.5% DMSO as vehicle control, or left untreated, and finally stimulated for 2 min at 37 °C with 100 ng/mL recombinant mouse CSF1 (R&D Systems) by adding 1 mL prewarmed starving medium containing 400 ng/mL CSF1. Dishes were placed on ice and cells were immediately washed with ice-cold PBS and lysed with 50 µL lysis buffer (50 mM HEPES pH 7.5, 150 mM NaCl, 1.5 mM MgCl2, 10% glycerol, 1% Triton X-100, 0.5% desoxycholate, 0.2% sodium dodecyl sulfate, 1 mM ethylene glycol-bis[β-aminoethyl ether]-N,N,N′,N′-tetraacetic acid, 100 mM NaF, 10 mM Na4P2O7, 1 mM Na3VO4, 1% Phosphatase Inhibitor Cocktail 3 [Sigma-Aldrich], 1 mM phenylmethyl sulfonyl fluoride, Complete Protease Inhibitor Cocktail [Roche CustomBiotech; 1 tablet/10 mL], and 50 U/mL Benzonase [Sigma-Aldrich]). Lysed cells were scraped into Eppendorf tubes, incubated on ice for 20 min, and centrifuged at 4 °C for 10 min at 13,000 rpm; supernatants (lysates) were transferred into new tubes and stored at −80 °C.
Protein concentrations were determined using Pierce bicinchoninic acid assay (Thermo Fisher Scientific) and 40 µg/lane of total lysate was separated by SDS-PAGE on 4–12% Criterion XT Bis–Tris Gels (Bio-Rad) and subsequently transferred to polyvinylidene difluoride membranes using the Trans Blot Turbo Blotting System (Bio-Rad). For antigen detection, membranes were blocked with PBS Odyssey blocking reagent (LI-COR Biosciences) for 1 h at room temperature (RT). Primary antibodies were incubated overnight at 4 °C and the fluorescent secondary antibodies were incubated for 1 h at RT. After each antibody incubation, blots were washed with PBS with 0.05% Tween 20 (Carl Roth) for 15–30 min at RT. Fluorescent signals were quantitatively captured using the Odyssey DLx Infrared Imaging System (LI-COR Biosciences) and the half-maximal inhibitory concentration (IC50) values were calculated using GraphPad software (version 7 or newer).

[1] = PK of REG in plasma and CT26 tumor tissue; type: in vivo, mouse; conditions: after the last dose, CT26 mice
Description: CT26 tumor cells were cultivated in RPMI 1640 with 2 mM L-glutamine (Gibco, Invitrogen GmbH) containing 10% fetal bovine serum (Gibco) at 37 °C and 5% CO2. Cell lines were maintained in culture for no longer than 6 months, and mycoplasma contamination was excluded by enzymatic test (MycoAlert, Lonza) prior to in vivo application. Tumor cells (2 × 10^6) were transplanted subcutaneously into 6- to 8-week-old female BALB/c mice. Control mice were subjected to sham surgery without tumor cell transplantation. Blood and tumor samples were collected from untreated control and tumor-bearing mice on days 4 and 8 (n = 3 mice/group). […] For interim analysis, blood and tumor tissue were collected from each group (n = 3 mice/group) after 7 days of treatment. For pharmacokinetic (PK)/pharmacodynamic (PD) relationship analysis, tissues were taken 24 h after the penultimate dose and 1, 3, 7, and 24 h after the ultimate dose. Tumor diameter was measured by caliper and body weight was determined at least twice weekly. Tumor volume was calculated using the formula 0.5 × a × b^2, where a and b are the long and short diameters of the tumor, respectively.
PK parameters, namely AUC(0–24)ss and Cmax, were calculated from plasma and tumor concentrations using a noncompartmental analysis.

CD115^hi cells in blood = assay: CD115^hi cells in blood, MC38 study; type: in vivo, mouse; conditions: C57BL/6 mice with subcutaneous MC38 CRC tumors
Description: For tumors, single-cell suspensions were prepared from the fresh tumor pieces using a mouse Tumor Dissociation Kit (Miltenyi Biotec). The final cell pellets were resuspended in 1 mL FC buffer (PBS with 2 mM EDTA, 0.5% bovine serum albumin). Then, 100 µL of the tumor single-cell suspensions and the EDTA blood samples were stained by addition of the antibody cocktail and incubated for 10 min at 4 °C according to the manufacturer’s instructions. After antibody incubation, blood samples were incubated with 2–3 mL lysis buffer (0.17 M NH4Cl, 10 mM KHCO3, 0.1 mM EDTA) for 10–20 min at RT to lyse and remove red blood cells. Subsequently, samples were centrifuged at 300 g for 5 min at 4 °C and cells were washed with 2–3 mL FC buffer. Tumor samples were washed immediately after antibody incubation with 2–3 mL FC buffer without the lysis procedure and centrifuged at 300 g for 5 min at 4 °C. […] Next, 50 µL of blood and 70 µL of tumor cell suspensions were analyzed by FC using MACSQuant Analyzer 10 and MACSQuant Analyzer 16 (Miltenyi Biotec). FC data were analyzed with the FlowLogic software (Inivai Technologies distributed through Miltenyi Biotec; version 7.2.1) and gated as shown in Fig. S1 (see Additional file 2), whereby up to seven subpopulations were identified in the CD45^+ fraction using antibodies against F4/80 and CD115. […]

IC50 (ERK1/2): 293 ± 123 nM | time of highest concentration of REG (Cmax) in plasma [1]: ≤ 3 h
Structure (SMILES): CNC(=O)c1cc(Oc2ccc(NC(=O)Nc3ccc(Cl)c(C(F)(F)F)c3)c(F)c2)ccn1 [REG, Regorafenib]
number of CD115^hi cells in the blood (CD115^hi cells in blood): reduced
